Here are results for one compound from patent EP4050002A1, “ANTI-PROLIFERATIVE AGENTS” (First Health Pharmaceuticals B.V., priority 2021, dated 2022).

For one assay, the system named is A549 Red-FLuc. The assay can be described thus: Cytotoxicity, cell count method. It is filed as cell-based. The settings on record: Homo sapiens, 72 hours of incubation. As to the method:
The anti-tumor activity of the compounds of the present invention was evaluated as the effect on the proliferation and survival of tumor cells by counting the number of living cells in presence or absence of the compounds ("cell count method"), and as the effect on the viability and metabolic activity of the cells, by using particular substrates that are converted by cellular enzymes into coloured or luminescent products, proportionally with metabolic activity and state of the cell, such as the MTS tetrazolium compound ("MTS method") or luciferin ("ATP-based method") respectively.
Cells were seeded at 3 to 5 x 10^4 cells/well density depending on cell lines and maintained at 37°C in 5% CO2. After 24 hours cells were treated with ascending concentrations of the investigational compounds and the reference (5-fluoro-Uracyl) in a range from 0 to 100 µM. Compounds were dissolved in DMSO which final concentration in each well was 0.5% v:v. After 72 h of incubation with compounds, the cells were detached with trypsin and re-suspended in 1 ml of complete medium; the cell number was evaluated using a Z2 Coulter Counter ("cell count method") (Attallah and Johnson, A simple highly sensitive methods for the determination of cell viability using an electronic particle analyzer, Coulter counter J. Immunol. Methods. 1981, 41, 155; Leonardi et al., Activated kinase screening identifies the IKBKE oncogene as a positive regulator of autophagy. Autophagy, 2019, 15, 312). Alternatively, after the 72 hours of incubation with compounds, the MTS solution (CellTiter 96® AQueous One Solution Cell Proliferation Assay) is added to each well and absorbance at 490 nm wavelength is read after 2 hours of incubation ("MTS method"). Results in Tables 8-13, 17, 18 were obtained with the cell count method. Results in Tables 14-15 were obtained with the MTS method. Results in Table 16 were obtained with ATP-based method.

The target in another assay is DDX3X (Homo sapiens, UniProt O00571). As to the kind of experiment: Helicase assay (unwinding of 18/36mer dsRNA). The settings on record: 50, 250 and 500 µM, in presence of ATP. Details: host or cells: 293T cells (transient transfection, anti-HA immunoprecipitation, protein kept on beads). It is filed as biochemical. As to the method: The DDX3X protein was obtained by immunoprecipitation from 293T cells (3x10^5) were seeded in 6-well plates and, after 24h, transfected with 1 µg of HA-DDX3 (Addgene plasmid # 44975) by using the Lipofectamine reagent (Thermo Fischer Scientific). After 36 h, cells were lysed in NP-40 Lysis Buffer (20 mM HEPES pH=7.5, 10 mM EGTA pH=8, 40 mM β-glycerolphosphate, 1% NP40, 2.5 mM MgCl2, 2 mM Orthovanadate, 2 mM NaF, 1 mM DTT, and 1X protease inhibitors mixture) and 2 mg of proteins were immunoprecipitated with anti-HA antibodies (Covance) in NP40 lysis buffer. Immunoprecipitated samples were washed twice with lysis buffer and one time in helicase reaction buffer (50 mM Tris HCl pH=8, 1 mM DTT, 5% glycerol, 10 mM MgCl2). Beads were then resuspended in 100 µl in helicase reaction buffer. […]
Chain of DDX3X (O00571 whole entry): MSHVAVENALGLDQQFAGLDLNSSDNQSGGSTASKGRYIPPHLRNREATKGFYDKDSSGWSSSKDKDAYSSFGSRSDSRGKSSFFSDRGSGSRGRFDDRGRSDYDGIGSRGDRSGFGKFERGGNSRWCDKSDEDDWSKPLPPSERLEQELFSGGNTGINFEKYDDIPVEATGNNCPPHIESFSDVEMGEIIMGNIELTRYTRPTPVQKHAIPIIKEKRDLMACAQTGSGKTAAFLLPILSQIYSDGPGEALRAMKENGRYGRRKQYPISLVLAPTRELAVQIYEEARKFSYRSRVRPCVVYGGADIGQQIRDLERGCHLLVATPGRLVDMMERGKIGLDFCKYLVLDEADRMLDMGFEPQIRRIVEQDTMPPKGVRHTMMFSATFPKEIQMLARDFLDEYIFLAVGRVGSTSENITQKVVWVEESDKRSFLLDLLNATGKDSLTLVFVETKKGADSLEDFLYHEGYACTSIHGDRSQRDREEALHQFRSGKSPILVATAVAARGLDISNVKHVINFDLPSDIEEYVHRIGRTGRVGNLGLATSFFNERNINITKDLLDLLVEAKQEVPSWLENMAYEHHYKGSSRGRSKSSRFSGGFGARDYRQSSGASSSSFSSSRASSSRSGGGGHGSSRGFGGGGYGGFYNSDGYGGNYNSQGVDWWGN
Ultimately, reactions were performed in a final volume 100 µl of helicase reaction buffer plus ATP 4 mM, 30 µl of beads used to immunoprecipitate HA-DDX3X, 20 nM of 18/36mer dsRNA and 100 nM of competitor at 37°C for 1 hour and stopped by adding 10 µl of a stopping solution (EDTA 60 mM pH=8, 40% glycerol, 0.6% SDS, 1% Orange G). […] Quantification of the ssRNA was performed by the ImageJ software (version 1.53, NIH). […]

pIC50: −log10 of the molar value.

A word on the pIC50: it is the IC50 on a negative log10 scale, so that one unit is a factor of ten. Low values mean a large IC50, high ones a small IC50. Compound `CCCCc1cn(-c2ccc(-c3nnc(-c4cccc(C(=O)O)c4)o3)cc2)nn1` [Compound 16, 3-(5-(4-(4-butyl-1H-1,2,3-triazol-1-yl)phenyl)-1,3,4-oxadiazol-2-yl)benzoic acid] had a pIC50 in the assay with A549 Red-FLuc of 4.74. For the same compound, the “inhibitory effect on DDX3X helicase activity” value on DDX3X was “inhibitory effect on DDX3X helicase activity”.
